Patent publication US10640511B2, “Hepatitis B antiviral agents” (ENANTA PHARMACEUTICALS, INC., priority 2016, dated 2020)

Assays:
[1] = tested on: HBV; assay: HepAD38 antiviral assay: reduction of viral product accumulation (virion DNA by qPCR; HBsAg/HBeAg ELISA); type: cell-based, hepatitis B virus (HBV); conditions: Hepatitis B virus, 120 h; HepAD38 cells; 50% reduction of viral product accumulation relative to no drug controls; harvest five days after compound addition
Method: Methods: HepAD38 cells are maintained as previously reported (Ladner et al, Antimicrob. Agents Chemother. 1997, […], 1715). Briefly, cells are passaged upon attaining confluency in DMEM/F12 media in the presence of 10% FBS, Penn/Strep, 250 μg/mL G418, and 1 μg/ml tetracycline. Novel compounds are screened by first washing cells three times with PBS to remove tetracycline, and plating in 96 well plates at 35,000 cells/well. Compounds dissolved in DMSO are then diluted 1:200 into wells containing cells. Five days after compound addition, material is harvested for analysis. For an extended 8 day analysis, cells are plated and treated as described above, but media and compound are refreshed on d2 and d5 post initial treatment.
On harvest day, virion DNA is obtained by lysing with Sidestep Lysis and Stabilization Buffer and then quantified via quantitative real time PCR. Commercially available ELISA kits are used to quantitate the viral proteins HBsAg (Alpco) or HbeAg (US Biological) by following the manufacturer's recommended protocol after diluting samples to match the linear range of their respective assays. Irrespective of readout, compound concentrations that reduce viral product accumulation in the cell lysates or supernatants by 50% relative to no drug controls (EC50) are reported; EC50 ranges are as follows: A<0.1 μM; B 0.1-1 μM; C>1 μM.

[2] = Compound toxicity, ATPLite total ATP levels; type: cell-based; conditions: human, HepG2 cells, 50% reduction of total ATP levels (ATPLite) three days after compound addition
Method: Compound toxicity is evaluated by seeding cells at 15,000 cells/well and treating with compound as described above.

Compound | EC50 [1] [nM] | CC50 at 3 days ([2]; class symbols) [nM] | CC50 at 3 days ([2]; numeric bound) [nM]
Cn1ccc(C2=C3CC(NC(=O)OC(C)(C)C)CN3C(c3nccs3)=N[C@H]2c2ccc(F)cc2Cl)n1 (some centres unmarked) [Example 1] | < 100 | < 10000 | 
Cn1ccc(C2=C3CC(NS(=O)(=O)C4CC4)CN3C(c3nccs3)=N[C@H]2c2ccc(F)cc2Cl)n1 (some centres unmarked) [Example 2] | < 100 | > 25000 | 
Cn1ccc(C2=C3C[C@H](NS(=O)(=O)C4CC4)CN3C(c3nccs3)=N[C@H]2c2ccc(F)cc2Cl)n1 [Example 3] | < 100 |  | 
Cn1ccc(C2=C3C[C@H](NS(=O)(=O)C4CC4)CN3C(c3nccs3)=NC2(C)c2ccc(F)cc2)n1 (some centres unmarked) [Example 4] | < 100 |  | 
Cn1ccc(C2=C3C[C@H](NS(=O)(=O)C4CC4)CN3C(c3nccs3)=N[C@@]2(C)c2ccc(F)cc2)n1 [Example 5] | < 100 |  | 
Cn1ccc(C2=C3C[C@H](NS(C)(=O)=O)CN3C(c3nccs3)=N[C@H]2c2ccc(F)cc2Cl)n1 [Example 6] | < 100 |  | 
CCS(=O)(=O)N[C@H]1CC2=C(c3ccn(C)n3)[C@H](c3ccc(F)cc3Cl)N=C(c3nccs3)N2C1 [Example 7] | < 100 |  | 
CC(C)S(=O)(=O)N[C@H]1CC2=C(c3ccn(C)n3)[C@H](c3ccc(F)cc3Cl)N=C(c3nccs3)N2C1 [Example 8] | < 100 |  | 
Cn1ccc(C2=C3C[C@H](NS(=O)(=O)Cc4ccccc4)CN3C(c3nccs3)=N[C@H]2c2ccc(F)cc2Cl)n1 [Example 9] | < 100 |  | 
Cn1ccc(C2=C3C[C@H](NS(=O)(=O)C4(C)CC4)CN3C(c3nccs3)=N[C@H]2c2ccc(F)cc2Cl)n1 [Example 10] | < 100 |  | 
Cn1ccc(C2=C3C[C@H](NS(=O)(=O)C4CCC4)CN3C(c3nccs3)=N[C@H]2c2ccc(F)cc2Cl)n1 [Example 11] | < 100 |  | 
Cn1ccc(C2=C3C[C@H](NS(=O)(=O)C4CCCC4)CN3C(c3nccs3)=N[C@H]2c2ccc(F)cc2Cl)n1 [Example 12] | < 100 |  | 
Cn1ccc(C2=C3C[C@H](NS(=O)(=O)C4CCCCC4)CN3C(c3nccs3)=N[C@H]2c2ccc(F)cc2Cl)n1 [Example 13] | < 100 |  | 
Cn1ccc(C2=C3C[C@H](NS(=O)(=O)c4ccccc4)CN3C(c3nccs3)=N[C@H]2c2ccc(F)cc2Cl)n1 [Example 14] | < 100 |  | 
O=S(=O)(N[C@H]1CC2=C(c3ncco3)[C@H](c3ccc(F)cc3Cl)N=C(c3nccs3)N2C1)C1CC1 [Example 15] | < 100 |  | 
Cn1ccc(C2=C3C[C@H](NS(=O)(=O)C4CC4)CN3C(c3nccs3)=N[C@@]2(C)c2ccc(F)c(F)c2)n1 [Example 16] | < 100 |  | 
[2H]C([2H])([2H])n1ccc(C2=C3C[C@H](NS(=O)(=O)C4CC4)CN3C(c3nccs3)=N[C@H]2c2ccc(F)cc2Cl)n1 [Example 17] | < 100 | > 25000 | 
Cc1cnc(C2=C3C[C@H](NS(=O)(=O)C4CC4)CN3C(c3nccs3)=N[C@H]2c2ccc(F)cc2Cl)o1 [Example 18] | < 100 | > 25000 | 
Cn1cc(C2=C3C[C@H](NS(=O)(=O)C4CC4)CN3C(c3nccs3)=N[C@H]2c2ccc(F)cc2Cl)cn1 [Example 19] | < 100 |  | 
Cn1ccc(C2=C3C[C@H](NS(N)(=O)=O)CN3C(c3nccs3)=N[C@H]2c2ccc(F)cc2Cl)n1 [Example 20] | < 100 | > 25000 | 
Cc1coc(C2=C3C[C@H](NS(=O)(=O)C4CC4)CN3C(c3nccs3)=N[C@H]2c2ccc(F)cc2Cl)n1 [Example 21] | < 100 |  | 
CCn1ccc(C2=C3C[C@H](NS(=O)(=O)C4CC4)CN3C(c3nccs3)=N[C@H]2c2ccc(F)cc2Cl)n1 [Example 22] | < 100 |  | > 6000
O=S(=O)(N[C@H]1CC2=C(c3ccccn3)[C@H](c3ccc(F)cc3Cl)N=C(c3nccs3)N2C1)C1CC1 [Example 23] | 100 to 1000 |  | 
